From publication PMC8528301 (PLoS ONE, 2021)

Tested on: BCR-ABL Arf-/- Luc+ ALL cells
Assay: Survival study of mice with BCR-ABL Arf-/- leukemia on discontinuous DEX regimen
Format: in vivo, mouse
Settings: for median survival time: BCR-ABL Arf-/- ALL, discontinuous DEX
Source text: Murine BCR-ABL Arf^-/- Luc^+ ALL cells were created by Dr. Charles Sherr (St. Jude Children’s Research Hospital) and provided immediately prior to mouse injection by the laboratory of Dr. Mary Relling (St. Jude Children’s Research Hospital). The cells had been tested for mycoplasma and were authenticated by flow cytometry for cell surface markers, tested for their leukemia-inducing capabilities with serial dilutions of cell numbers (from 2 million down to 2,000 cells), and ensured that the cells with the luciferase constructs produced light when combined with luciferin. Only cells from early passage (P3-P15) were used for these experiments. The St Jude Children’s Research Hospital Institutional Biosafety Committee and IACUC approved the use of these cells for injection into mice. C57BL/6 VD3 sufficient (n = 24) and deficient (n = 22) male mice (8–18 wk of age) were anaesthetized using isoflurane and injected iv with 2,000 BCR-ABL Arf^-/- Luc^+ ALL cells on day zero. […] Xenogen IVIS-200 (Caliper Life Sciences, Hopkinton, MA) was used to acquire bioluminescent images 5 minutes post-intra peritoneal injection of 200 μL of 100 mg/kg D-Luciferin (Caliper Life Sciences, Hopkinton, MA). Mice were anaesthetized with isoflurane during this procedure. The bioluminescent signal (photons/s) from a fixed region of interest (ROI) is used to monitor the disease progression twice every week. Images acquired here were analyzed using Living Image 3.1 software (Caliper Life Sciences), where whole body luciferase flux measurements (photons/s) were quantified as disease burden. Animal Welfare: All efforts were taken to minimize suffering and distress in the survival studies. […] All other mice in the survival study were euthanized within hours of reaching the humane end point/end of study = moribund for any reason which was determined based on hind limb paralysis (very typically observed in mice with BCR-ABL ALL), scruffy coat, lethargy or an inability to obtain food or water (SJ IACUC protocol #100468–613). A portion of spleen and hind limb were fixed, paraffin embedded, cut, and slides stained with hematoxylin and eosin and evaluated by a St Jude Pathologist (Dr. Laura Janke) to confirm leukemia was the cause of death.

In the case of `C[C@@H]1C[C@H]2[C@@H]3CCC4=CC(=O)C=C[C@]4(C)[C@@]3(F)[C@@H](O)C[C@]2(C)[C@@]1(O)C(=O)CO` [DEX, dexamethasone], the median survival time (DEX-treated VD3 deficient male mice) is reported as 59 days, the median survival time (DEX-treated VD3 sufficient male mice) is reported as 36 days and the Survival proportions (VD3 Deficient, days survived 0) is reported as 100. For the same molecule, the Survival proportions (VD3 Deficient, days survived 22) was 90.5, the Survival proportions (VD3 Deficient, days survived 24) was 85.7 and the Survival proportions (VD3 Deficient, days survived 32) was 81. The Survival proportions (VD3 Deficient, days survived 36) was 76.2, the Survival proportions (VD3 Deficient, days survived 38) was 71.4 and the Survival proportions (VD3 Deficient, days survived 48) was 61.9. For the same molecule, the Survival proportions (VD3 Deficient, days survived 55) was 57.1, the Survival proportions (VD3 Deficient, days survived 59) was 47.6 and the Survival proportions (VD3 Sufficient, days survived 0) was 100. It also gave a Survival proportions (VD3 Sufficient, days survived 15) of 90.9, a Survival proportions (VD3 Sufficient, days survived 22) of 86.4 and a Survival proportions (VD3 Sufficient, days survived 23) of 81.8. The Survival proportions (VD3 Sufficient, days survived 25) was 72.7, the Survival proportions (VD3 Sufficient, days survived 32) was 63.6 and the Survival proportions (VD3 Sufficient, days survived 34) was 59.1. The Survival proportions (VD3 Sufficient, days survived 35) was 54.5, the Survival proportions (VD3 Sufficient, days survived 37) was 45.5 and the Survival proportions (VD3 Sufficient, days survived 38) was 40.9. The Survival proportions (VD3 Sufficient, days survived 48) was 27.3, the Survival proportions (VD3 Sufficient, days survived 55) was 22.7 and the Survival proportions (VD3 Sufficient, days survived 59) was 18.2.
